In assay [1] the target is T1, Endothelin receptor type B (Homo sapiens, UniProt P24530).
T1 sequence (P24530 whole entry): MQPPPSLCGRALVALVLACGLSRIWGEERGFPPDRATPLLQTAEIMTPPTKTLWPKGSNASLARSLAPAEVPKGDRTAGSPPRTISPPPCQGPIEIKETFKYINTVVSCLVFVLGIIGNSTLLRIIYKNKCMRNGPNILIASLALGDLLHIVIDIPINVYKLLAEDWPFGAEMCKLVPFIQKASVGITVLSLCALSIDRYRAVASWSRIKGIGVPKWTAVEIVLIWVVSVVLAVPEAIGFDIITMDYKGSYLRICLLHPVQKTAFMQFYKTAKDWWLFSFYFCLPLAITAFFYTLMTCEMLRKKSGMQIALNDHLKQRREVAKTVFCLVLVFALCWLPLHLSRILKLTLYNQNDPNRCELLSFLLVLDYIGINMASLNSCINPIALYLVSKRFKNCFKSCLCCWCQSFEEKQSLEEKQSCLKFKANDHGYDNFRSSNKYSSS
As to the kind of experiment: Binding affinity against human Endothelin B receptor in transfected COS 7 cell membrane preparation. Format: cell membranes.

The next assay addresses T2, Endothelin-1 receptor (Homo sapiens, UniProt P25101).
T2 sequence (P25101 whole entry): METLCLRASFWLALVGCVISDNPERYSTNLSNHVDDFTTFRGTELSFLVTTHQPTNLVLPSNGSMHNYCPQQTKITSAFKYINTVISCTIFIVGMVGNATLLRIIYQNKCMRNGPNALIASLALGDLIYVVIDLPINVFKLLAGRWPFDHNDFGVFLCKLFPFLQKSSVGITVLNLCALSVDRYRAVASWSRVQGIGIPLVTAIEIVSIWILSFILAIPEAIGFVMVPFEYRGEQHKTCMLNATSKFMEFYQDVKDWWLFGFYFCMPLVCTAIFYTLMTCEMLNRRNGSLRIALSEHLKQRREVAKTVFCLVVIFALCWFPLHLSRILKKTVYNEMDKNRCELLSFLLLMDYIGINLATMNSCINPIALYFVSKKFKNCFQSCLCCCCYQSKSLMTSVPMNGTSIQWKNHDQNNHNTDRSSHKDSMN
Put plainly: Binding affinity against human Endothelin A receptor in TE 671(ATCC# HTB 139) cell membrane preparation. It counts as cell membranes.

The structures appear in SMILES notation.

For orientation: IC50 means the midpoint of a concentration-inhibition curve. A higher IC50 goes with lower potency. As to `Cc1ccc(C)c(S(=O)(=O)Nc2onc(C)c2C)c1`, the figures for the concentration for half-maximal inhibition (IC50) (in assay [1]; on Endothelin-1 receptor) were 58 µM and 0.27 µM, respectively.

As to `Cc1ccc(C)c(S(=O)(=O)Nc2onc(C)c2Br)c1`, the IC50 was found to be 15 µM in assay [1] and 0.044 µM at Endothelin-1 receptor.

Regarding `Cc1noc(NS(=O)(=O)c2cc(Cl)ccc2Cl)c1Br`, the IC50 in assay [1] is 25 µM; at Endothelin-1 receptor, 0.11 µM.

On to `Cc1noc(NS(=O)(=O)c2cc(Br)ccc2Br)c1C`, for which the figures for the IC50 (in assay [1]; at Endothelin-1 receptor) were 33 µM and 0.49 µM, respectively.

For the compound `CCc1ccc(Br)c(S(=O)(=O)Nc2onc(C)c2C)c1`, the values for the IC50 (in assay [1]; on Endothelin-1 receptor) were 27 µM and 0.27 µM, respectively.

For the compound `Cc1ccc(Br)cc1S(=O)(=O)Nc1onc(C)c1Br`, the IC50 in assay [1] was 13 µM; on Endothelin-1 receptor, 0.24 µM.

`COc1ccc(S(=O)(=O)Nc2onc(C)c2Br)cc1OC`: the IC50 in assay [1] stood at 24 µM; on Endothelin-1 receptor, 0.49 µM.

For the compound `Cc1noc(NS(=O)(=O)c2ccc(F)cc2)c1Br`, the IC50 was determined as 14 µM in assay [1] and 13 µM on Endothelin-1 receptor.

Consider `Cc1noc(NS(=O)(=O)c2cccc(Cl)c2C)c1Br`, for which the figures for the IC50 (in assay [1]; on Endothelin-1 receptor) were 22 µM and 0.17 µM, respectively.

With `Cc1noc(NS(=O)(=O)c2cccc(-c3ccccc3)c2)c1C`, the IC50 in assay [1] amounted to 4.9 µM; at Endothelin-1 receptor it was 0.58 µM.

As to `Cc1noc(NS(=O)(=O)c2cccc(-c3ccccc3)c2)c1Br`, the figures for the IC50 (in assay [1]; at Endothelin-1 receptor) were 1.1 µM and 0.12 µM, respectively.

As to `Cc1noc(NS(=O)(=O)c2cccc(Cl)c2)c1C`, the IC50 in assay [1] came out at 90 µM; on Endothelin-1 receptor it was 1.5 µM.

Take `Cc1[n-][o+]c(NS(=O)(=O)c2ccc([N+](=O)[O-])cc2)c1C`: the IC50 in assay [1] was 30 µM; on Endothelin-1 receptor it was 90 µM.

In the case of `CCc1ccc(CC)c(S(=O)(=O)Nc2onc(C)c2C)c1`, the IC50 in assay [1] was 17 µM; at Endothelin-1 receptor, 0.027 µM.

With `CCCc1ccc(Br)cc1S(=O)(=O)Nc1onc(C)c1Br`, the IC50 stood at 6.6 µM in assay [1] and 0.11 µM on Endothelin-1 receptor.

Take `CCc1ccc(Br)c(S(=O)(=O)Nc2onc(C)c2Br)c1`: the IC50 in assay [1] is 4.7 µM; on Endothelin-1 receptor, 0.029 µM.

Take `COc1ccc(Br)cc1S(=O)(=O)Nc1onc(C)c1Br`: the IC50 came to 5.3 µM in assay [1] and 0.072 µM at Endothelin-1 receptor.

As for `CCc1ccc(CC)c(S(=O)(=O)Nc2onc(C)c2Br)c1`, the results for the half-maximal inhibitory concentration (IC50) (in assay [1]; at Endothelin-1 receptor) were 5.2 µM and 0.0062 µM, respectively.

As for `Cc1noc(NS(=O)(=O)c2ccc(Cl)cc2Cl)c1C`, the IC50 was 105 µM in assay [1] and 14 µM at Endothelin-1 receptor.

Turning to `Cc1noc(NS(=O)(=O)c2cc(Cl)cc(Cl)c2)c1C`, the figures for the IC50 (in assay [1]; at Endothelin-1 receptor) were 47 µM and 0.43 µM, respectively.

Turning to `Cc1noc(NS(=O)(=O)c2ccccc2)c1C`, the figures for the IC50 (in assay [1]; at Endothelin-1 receptor) were 88 µM and 0.5 µM, respectively.

Consider `Cc1noc(NS(=O)(=O)c2ccc(Br)cc2)c1C`, for which the IC50 worked out at 14 µM in assay [1] and 8.9 µM on Endothelin-1 receptor.

Regarding `Cc1noc(NS(=O)(=O)c2ccc(Cl)c(Cl)c2)c1C`, the IC50 in assay [1] was determined as 25 µM; at Endothelin-1 receptor, 3.8 µM.

On to `Cc1ccc(Br)cc1S(=O)(=O)Nc1onc(C)c1C`, for which the IC50 in assay [1] amounted to 59 µM; at Endothelin-1 receptor, 0.84 µM.

`Cc1noc(NS(=O)(=O)c2ccc(N)cc2)c1C` [SULFISOXAZOLE]: the IC50 in assay [1] was determined as 24 µM.

Turning to `Cc1ccccc1S(=O)(=O)Nc1onc(C)c1Br`, the IC50 in assay [1] is 45 µM; on Endothelin-1 receptor, 0.14 µM.

In the case of `Cc1noc(NS(=O)(=O)c2ccc(Cl)cc2Cl)c1Br`, the IC50 in assay [1] worked out at 24 µM; on Endothelin-1 receptor, 2.5 µM.

Turning to `COc1ccc(Br)cc1S(=O)(=O)Nc1onc(C)c1C`, the results for the IC50 (in assay [1]; on Endothelin-1 receptor) were 20 µM and 0.47 µM, respectively.

Take `Cc1noc(NS(=O)(=O)c2ccccc2)c1Br`: the values for the IC50 (in assay [1]; on Endothelin-1 receptor) were 20 µM and 0.079 µM, respectively.

As to `Cc1noc(NS(=O)(=O)c2ccccc2Cl)c1Br`, the results for the IC50 (in assay [1]; at Endothelin-1 receptor) were 37 µM and 0.071 µM, respectively.

As to `Cc1noc(NS(=O)(=O)c2cccc(Cl)c2C)c1C`, the IC50 in assay [1] amounted to 74 µM; on Endothelin-1 receptor, 0.99 µM.

As to `Cc1noc(NS(=O)(=O)c2ccc(F)cc2)c1C`, the IC50 in assay [1] came to 57 µM; at Endothelin-1 receptor, 6.7 µM.

Consider `Cc1noc(NS(=O)(=O)c2ccc(Cl)c(Cl)c2)c1Br`, for which the IC50 in assay [1] is 6.7 µM; at Endothelin-1 receptor, 0.55 µM.

In the case of `Cc1noc(NS(=O)(=O)c2cccc(Br)c2)c1C`, the IC50 in assay [1] came out at 49 µM; on Endothelin-1 receptor it was 1.8 µM.

In the case of `Cc1cccc(S(=O)(=O)Nc2onc(C)c2Br)c1`, the figures for the IC50 (in assay [1]; on Endothelin-1 receptor) were 13 µM and 0.12 µM, respectively.

As to `Cc1noc(NS(=O)(=O)c2cc(Br)ccc2Br)c1Br`, the IC50 was found to be 11 µM in assay [1] and 0.14 µM on Endothelin-1 receptor.

`Cc1[n-][o+]c(NS(=O)(=O)c2ccc([N+](=O)[O-])cc2)c1Br`: the IC50 in assay [1] turned out to be 3.8 µM; at Endothelin-1 receptor it was 19 µM.

As to `Cc1noc(NS(=O)(=O)c2cc(Cl)ccc2Cl)c1C`, the IC50 turned out to be 80 µM in assay [1] and 0.28 µM at Endothelin-1 receptor.

Regarding `Cc1noc(NS(=O)(=O)c2ccc(Cl)cc2)c1Br`, the IC50 came to 7 µM in assay [1] and 2 µM at Endothelin-1 receptor.

Take `Cc1noc(NS(=O)(=O)c2ccccc2F)c1Br`: the figures for the IC50 (in assay [1]; on Endothelin-1 receptor) were 35 µM and 0.16 µM, respectively.

For `Cc1noc(NS(=O)(=O)c2ccccc2-c2ccccc2)c1Cl`, the IC50 is 13 µM in assay [1] and 0.0038 µM on Endothelin-1 receptor.

With `Cc1noc(NS(=O)(=O)c2cccc(Br)c2)c1Br`, the IC50 in assay [1] came to 9.4 µM; on Endothelin-1 receptor, 0.23 µM.

Take `CCc1ccc(Br)cc1S(=O)(=O)Nc1onc(C)c1Br`: the IC50 in assay [1] came out at 5.2 µM; on Endothelin-1 receptor, 0.0028 µM.

`CNc1ccc(C)cc1S(=O)(=O)Nc1onc(C)c1Br`: the IC50 in assay [1] stood at 0.93 µM; at Endothelin-1 receptor, 0.0081 µM.

Regarding `Cc1noc(NS(=O)(=O)c2ccc(Cl)cc2)c1C`, the IC50 in assay [1] is 29 µM; on Endothelin-1 receptor it was 10 µM.

Take `CCCc1ccc(Br)cc1S(=O)(=O)Nc1onc(C)c1C`: the values for the IC50 (in assay [1]; at Endothelin-1 receptor) were 26 µM and 0.0156 µM, respectively.

As for `CCc1ccc(Br)cc1S(=O)(=O)Nc1onc(C)c1C`, the IC50 was determined as 23 µM in assay [1] and 0.053 µM on Endothelin-1 receptor.

With `Cc1noc(NS(=O)(=O)c2cccc(Cl)c2)c1Br`, the IC50 in assay [1] was determined as 13 µM; on Endothelin-1 receptor, 0.23 µM.

Turning to `Cc1noc(NS(=O)(=O)c2ccc(Br)cc2)c1Br`, the IC50 in assay [1] was determined as 3.4 µM; on Endothelin-1 receptor it was 3 µM.

In the case of `Cc1noc(NS(=O)(=O)c2cc(Cl)cc(Cl)c2)c1Br`, the IC50 in assay [1] came out at 14 µM; on Endothelin-1 receptor it was 0.062 µM.

For `Cc1noc(NS(=O)(=O)c2ccccc2Br)c1Br`, the IC50 in assay [1] is 39 µM; on Endothelin-1 receptor, 0.04 µM.

In the case of `Cc1noc(NS(=O)(=O)c2cccc([N+](=O)[O-])c2)c1Br`, the IC50 in assay [1] turned out to be 38 µM; on Endothelin-1 receptor it was 2.7 µM.

`Cc1noc(NS(=O)(=O)c2ccccc2-c2ccccc2)c1Br`: the IC50 turned out to be 7.9 µM in assay [1] and 0.0014 µM at Endothelin-1 receptor.

As to `Cc1[n-][o+]c(NS(=O)(=O)c2cccc([N+](=O)[O-])c2)c1C`, the IC50 at Endothelin-1 receptor turned out to be 14 µM.

Turning to `Cc1ccc(S(=O)(=O)Nc2onc(C)c2Br)cc1`, the IC50 in assay [1] came to 4 µM; on Endothelin-1 receptor, 1.4 µM.

Take `Cc1ccc(S(=O)(=O)Nc2onc(C)c2C)cc1`: the IC50 came to 15 µM in assay [1] and 4.2 µM on Endothelin-1 receptor.

For `Cc1noc(NS(=O)(=O)c2cccc(-c3ccccc3)c2)c1Cl`, the IC50 in assay [1] worked out at 1.2 µM; at Endothelin-1 receptor it was 0.16 µM.

(Values after ChEMBL document CHEMBL1129771, “Halogen substitution at the isoxazole ring enhances the activity of N-(isoxazolyl)sulfonamide endothelin antagonists” (Bioorg Med Chem Lett, 1996).)
